From patent US7329655B2, “Nitrogenous heterocyclic compounds” (Millennium Pharmaceuticals, Inc., priority 2000, dated 2008)

Tests used:
endogenous β-PDGFR = molecular target: T1, endogenous β-PDGFR (Homo sapiens, UniProt P09619); assay: MG63 phosphorylation assay; format: cell-based; settings: MG63 human osteosarcoma cells, PDGF-BB stimulation in the presence of 45% human plasma; inhibition of PDGF receptor phosphorylation; read-out: MG63 w/human plasma IC50
T1 construct: This assay is for measuring endogenous β-PDGFR phosphorylation in MG63 cells; host or cells: MG63 human osteosarcoma cells

human β-PDGFR = molecular target: T2, human β-PDGFR (Homo sapiens, UniProt P09619); assay: HR5 phosphorylation assay; format: cell-based; settings: HR5 cells (CHO overexpressing human β-PDGFR), 8 nM PDGF BB; inhibition of PDGF receptor phosphorylation
T2 construct: host or cells: CHO cells (HR5 line)
Procedure: The HR5 cell line is a cell line of CHO cells engineered to overexpress human β-PDGFR, which cell line is available from the ATCC. The expression level of β-PDGFR in HR5 cells is around 5×10^4 receptor per cell. For the phosphorylation assay according to the invention, HR5 cells were grown to confluency in 96-well microtiter plates under standard tissue culture conditions, followed by serum-starvation for 16 hours. Quiescent cells were incubated at 37° C. without or with increasing concentrations of the test compound (0.01-30 uM) for 30 minutes followed by the addition of 8 nM PDGF BB for 10 minutes. Cells were lysed in 100 mM Tris, pH 7.5, 750 mM NaCl, 0.5% Triton X-100, 10 mM sodium pyrophosphate, 50 mM NaF, 10 ug/ml aprotinin, […] leupeptin, 1 mM phenylmethylsulfonyl fluoride, 1 mM sodium vanadate, and the lysate was cleared by centrifugation at 15,000×g for 5 minutes. Clarified lysates were transferred into a second microtiter plate in which the wells were previously coated with 500 ng/well of 1B5B11 anti-β-PDGFR mAb, and then incubated for two hours at room temperature. […] Wells were washed prior to adding ABTS (Sigma), and the rate of substrate formation was monitored at 650 nm. […]

T2 sequence (P09619 33-1106): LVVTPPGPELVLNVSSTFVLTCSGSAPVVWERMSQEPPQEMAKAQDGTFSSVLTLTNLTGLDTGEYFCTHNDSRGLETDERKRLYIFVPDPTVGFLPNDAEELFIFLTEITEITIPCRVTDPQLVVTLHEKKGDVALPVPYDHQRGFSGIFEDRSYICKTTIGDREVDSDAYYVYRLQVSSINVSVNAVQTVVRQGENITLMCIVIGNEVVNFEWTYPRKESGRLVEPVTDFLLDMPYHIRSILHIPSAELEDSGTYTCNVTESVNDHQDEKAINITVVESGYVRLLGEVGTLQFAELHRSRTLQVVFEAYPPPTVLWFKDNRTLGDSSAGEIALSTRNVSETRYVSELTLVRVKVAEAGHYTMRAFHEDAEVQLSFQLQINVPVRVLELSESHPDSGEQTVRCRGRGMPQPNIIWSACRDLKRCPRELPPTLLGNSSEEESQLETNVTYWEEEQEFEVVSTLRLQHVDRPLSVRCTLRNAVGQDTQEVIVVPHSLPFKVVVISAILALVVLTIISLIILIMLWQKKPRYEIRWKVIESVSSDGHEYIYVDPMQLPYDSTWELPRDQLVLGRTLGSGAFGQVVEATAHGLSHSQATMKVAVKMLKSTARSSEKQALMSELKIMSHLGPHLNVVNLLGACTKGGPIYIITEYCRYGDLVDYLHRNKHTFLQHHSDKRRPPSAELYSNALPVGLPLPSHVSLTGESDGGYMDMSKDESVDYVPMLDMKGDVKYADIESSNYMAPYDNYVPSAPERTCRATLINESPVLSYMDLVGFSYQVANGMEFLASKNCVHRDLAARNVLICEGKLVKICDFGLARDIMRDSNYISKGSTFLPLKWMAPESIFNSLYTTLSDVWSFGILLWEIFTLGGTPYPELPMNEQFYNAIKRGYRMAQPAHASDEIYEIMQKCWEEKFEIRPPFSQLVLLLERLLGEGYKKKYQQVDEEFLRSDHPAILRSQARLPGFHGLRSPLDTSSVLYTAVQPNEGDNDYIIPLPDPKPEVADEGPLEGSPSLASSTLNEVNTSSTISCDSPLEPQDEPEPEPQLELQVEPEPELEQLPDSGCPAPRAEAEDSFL
T1 sequence (P09619 33-1106): as above

| IC50 (endogenous β-PDGFR) | IC50 (human β-PDGFR) | Structure (SMILES) |
| --- | --- | --- |
| 129 nM | 50 nM | COc1cc2c(N3CCN(C(=S)NCc4ccc5c(c4)OCO5)CC3)ncnc2cc1OCCN1CCCCC1 [Example 1] |
| 47 nM | 20 nM | COc1cc2c(N3CCN(C(=S)NCc4cnc(C)cn4)CC3)ncnc2cc1OCCN1CCCCC1 [Example 2, {4-[6-methoxy-7-(2-piperidylethoxy)quinazolin-4-yl]piperazinyl}{[(5-methylpyrazin-2-yl)methyl]amino}methane-1-thione] |
